Measured values reported in PubChem BioAssay AID2060890 (Molecular Pharmacology Branch, DTP, NCI, 2025).
Values joined by “and” are separate entries in the source; they are usually repeats but may differ in a detail not shown here. Equal entries are not always repeated.

Test system: LG0703-F948-PDC complex spheroid viability
Test: Anticancer human tumor LG0703-F948-PDC patient-derived lung adenocarcinoma cell line growth inhibition [RAS]
Settings: for viability, T/C: stronger effect = lower value
Procedure, shortened: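 Tumour cells grown as complex spheroids with HUVEC endothelial cells and mesenchymal stem cells, treated with RAS pathway inhibitor combinations. Each agent spans half-log steps from near clinical Cmax, or 10 microM where Cmax is unknown.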

[1] = curve of first compound, second compound 0.0316 µM
[2] = curve of first compound, second compound 0.1 µM
[3] = curve of first compound, second compound 0.316 µM
[4] = curve of first compound, second compound 1 µM
[5] = curve of first compound, second compound 3.16 µM
[6] = curve of first compound, second compound 10 µM
[7] = second compound 0.0316 µM, first compound 0.00316 µM
[8] = second compound 0.0316 µM, first compound 0.01 µM
[9] = second compound 0.0316 µM, first compound 0.0316 µM
[10] = second compound 0.0316 µM, first compound 0.1 µM
[11] = second compound 0.1 µM, first compound 0.00316 µM
[12] = second compound 0.1 µM, first compound 0.01 µM
[13] = second compound 0.1 µM, first compound 0.0316 µM
[14] = second compound 0.1 µM, first compound 0.1 µM
[15] = second compound 0.316 µM, first compound 0.00316 µM
[16] = second compound 0.316 µM, first compound 0.01 µM
[17] = second compound 0.316 µM, first compound 0.0316 µM
[18] = second compound 0.316 µM, first compound 0.1 µM
[19] = second compound 1 µM, first compound 0.00316 µM
[20] = second compound 1 µM, first compound 0.01 µM
[21] = second compound 1 µM, first compound 0.0316 µM
[22] = second compound 1 µM, first compound 0.1 µM
[23] = second compound 3.16 µM, first compound 0.00316 µM
[24] = second compound 3.16 µM, first compound 0.01 µM
[25] = second compound 3.16 µM, first compound 0.0316 µM
[26] = second compound 3.16 µM, first compound 0.1 µM
[27] = second compound 10 µM, first compound 0.00316 µM
[28] = second compound 10 µM, first compound 0.01 µM
[29] = second compound 10 µM, first compound 0.0316 µM
[30] = second compound 10 µM, first compound 0.1 µM
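Further: spheroids exposed to agents for 7 days.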
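Wherever viability, T/C is given: 100% = DMSO vehicle wells.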

CC(C)n1nc(-c2ccc3oc(N)nc3c2)c2c(N)ncnc21 + C#Cc1c(F)ccc2cc(O)cc(-c3ncc4c(N5CC6CCC(C5)N6)nc(OCC56CCCN5CC(F)C6)nc4c3F)c12
IC50 [1]: 4.71 nM | IC50 [2]: 3.96 nM | IC50 [3]: 3.99 nM | IC50 [4]: 2.13 nM | IC50 [5]: 0.608 nM | IC50 [6]: 0.343 nM | viability, T/C (second compound 0.0316 µM, first compound 0.000316 µM): 90.7% | viability, T/C (second compound 0.0316 µM, first compound 0.001 µM): 82.5% | viability, T/C [7]: 59.2% | viability, T/C [8]: 32% | viability, T/C [9]: 18% | viability, T/C [10]: 12.3% | viability, T/C (second compound 0.1 µM, first compound 0.000316 µM): 80.7% | viability, T/C (second compound 0.1 µM, first compound 0.001 µM): 85.6% | viability, T/C [11]: 47.7% | viability, T/C [12]: 34% | viability, T/C [13]: 19.7% | viability, T/C [14]: 11% | viability, T/C (second compound 0.316 µM, first compound 0.000316 µM): 88.3% | viability, T/C (second compound 0.316 µM, first compound 0.001 µM): 75.3% | viability, T/C [15]: 57.6% | viability, T/C [16]: 27.1% | viability, T/C [17]: 11.2% | viability, T/C [18]: 8.26% | viability, T/C (second compound 1 µM, first compound 0.000316 µM): 67.6% | viability, T/C (second compound 1 µM, first compound 0.001 µM): 51% | viability, T/C [19]: 50.2% | viability, T/C [20]: 21.1% | viability, T/C [21]: 9.33% | viability, T/C [22]: 5.14% | viability, T/C (second compound 3.16 µM, first compound 0.000316 µM): 58.6% | viability, T/C (second compound 3.16 µM, first compound 0.001 µM): 44.2% | viability, T/C [23]: 23.4% | viability, T/C [24]: 13.9% | viability, T/C [25]: 5.52% | viability, T/C [26]: 3.09% | viability, T/C (second compound 10 µM, first compound 0.000316 µM): 50.9% | viability, T/C (second compound 10 µM, first compound 0.001 µM): 37.8% | viability, T/C [27]: 16.5% | viability, T/C [28]: 4.6% | viability, T/C [29]: 2.45% | viability, T/C [30]: 0.63%

Cc1nc(N2CCC3(CC2)COC(C)C3N)c(CO)nc1Sc1ccnc(N)c1Cl (stereo unspecified)
viability, T/C (compound 0.0316 µM): 91.6% and 86.5% and 84.2% | viability, T/C (compound 0.1 µM): 68.1% and 83.2% and 66.4% | viability, T/C (compound 0.316 µM): 50.8% and 48.3% and 51.7% | viability, T/C (compound 1 µM): 36.9% and 35.6% and 34.5% | viability, T/C (compound 3.16 µM): 22% and 21.2% and 25.2% | viability, T/C (compound 10 µM): 11.4% and 12.8% and 12.1% | IC50 (curve of compound): 348 nM and 399 nM and 337 nM

C=CC(=O)Nc1cc(Nc2nccc(-c3cn(C)c4ccccc34)n2)c(OC)cc1N(C)CCN(C)C + C#Cc1c(F)ccc2cc(O)cc(-c3ncc4c(N5CC6CCC(C5)N6)nc(OCC56CCCN5CC(F)C6)nc4c3F)c12
IC50 [1]: 11 nM | IC50 [2]: 9.22 nM | IC50 [3]: 6.02 nM | IC50 [4]: 4.22 nM | IC50 [5]: < 3.16 nM | IC50 [6]: < 3.16 nM | viability, T/C [7]: 96.5% | viability, T/C [8]: 53% | viability, T/C [9]: 17.6% | viability, T/C [10]: 12.5% | viability, T/C (second compound 0.0316 µM, first compound 0.316 µM): 11.1% | viability, T/C (second compound 0.0316 µM, first compound 1 µM): 8.76% | viability, T/C [11]: 84.3% | viability, T/C [12]: 47.4% | viability, T/C [13]: 15.8% | viability, T/C [14]: 14% | viability, T/C (second compound 0.1 µM, first compound 0.316 µM): 13.8% | viability, T/C (second compound 0.1 µM, first compound 1 µM): 8.56% | viability, T/C [15]: 69.2% | viability, T/C [16]: 34.9% | viability, T/C [17]: 15.6% | viability, T/C [18]: 11.2% | viability, T/C (second compound 0.316 µM, first compound 0.316 µM): 10.1% | viability, T/C (second compound 0.316 µM, first compound 1 µM): 8.31% | viability, T/C [19]: 56.2% | viability, T/C [20]: 31.5% | viability, T/C [21]: 14.2% | viability, T/C [22]: 10.2% | viability, T/C (second compound 1 µM, first compound 0.316 µM): 9.15% | viability, T/C (second compound 1 µM, first compound 1 µM): 7.05% | viability, T/C [23]: 48.8% | viability, T/C [24]: 25% | viability, T/C [25]: 10.1% | viability, T/C [26]: 11.4% | viability, T/C (second compound 3.16 µM, first compound 0.316 µM): 8.78% | viability, T/C (second compound 3.16 µM, first compound 1 µM): 6.8% | viability, T/C [27]: 33.5% | viability, T/C [28]: 10.2% | viability, T/C [29]: 10.5% | viability, T/C [30]: 7.37% | viability, T/C (second compound 10 µM, first compound 0.316 µM): 6.33% | viability, T/C (second compound 10 µM, first compound 1 µM): 4.43%
